The target of this test is T1, hROMK (hKir1.1) (Homo sapiens, UniProt P48048).
T1 construct: expressed in transfected cells
T1 sequence (P48048 1-391): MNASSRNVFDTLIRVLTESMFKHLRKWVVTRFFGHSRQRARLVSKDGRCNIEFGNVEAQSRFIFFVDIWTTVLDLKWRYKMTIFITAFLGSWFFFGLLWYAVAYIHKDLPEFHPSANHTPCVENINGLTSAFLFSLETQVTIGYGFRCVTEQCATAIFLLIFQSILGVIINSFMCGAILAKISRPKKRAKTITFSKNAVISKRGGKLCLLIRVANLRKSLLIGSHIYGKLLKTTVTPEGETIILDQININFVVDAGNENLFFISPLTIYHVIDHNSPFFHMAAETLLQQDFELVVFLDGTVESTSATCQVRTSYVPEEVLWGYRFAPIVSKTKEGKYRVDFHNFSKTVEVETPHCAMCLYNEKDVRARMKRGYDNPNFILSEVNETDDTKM
The test is described as follows: Thallium Flux Assay (ROMK channel functional thallium flux, FLIPR-Tetra). To be noted: HEK293 cells stably expressing hROMK (hKir1.1); 30 min compound incubation. It counts as cell-based. Put shortly:
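HEK293 cells stably expressing hKir1.1, loaded with FluxOR dye for 90 min, then preincubated with compound for 30 min at ambient temperature with 0.3 mM ouabain and probenecid. Stimulated with 3 mM thallium/0.3 mM potassium (final); fluorescence read ~10 min. Normalized to 3 μM reference ROMK inhibitor; IC50 from inhibition of flux.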
For `CC1=C(N2CCC3(CCN(C[C@@H](O)c4ccnc(-n5cnnn5)c4)CC3)C2=O)COC1=O` [Example 130, 8-{(2S)-2-hydroxy-2-[2-(1H-tetrazol-1-yl)pyridin-4-yl]ethyl}-2-(4-methyl-5-oxo-2,5-dihydrofuran-3-yl)-1-oxo-2-aza-8-azoniaspiro[4.5]decane], the IC50 came to 160 nM.

Molecule `CC1=C(N2CCC3(CCN(C[C@H](O)c4ccc(-n5cnnn5)cc4C)CC3)C2=O)COC1=O` [Example 38, 8-{(2R)-2-hydroxy-2-[2-methyl-4-(1H-tetrazol-1-yl)phenyl]ethyl}-2-(4-methyl-5-oxo-2,5-dihydrofuran-3-yl)-1-oxo-2-aza-8-azoniaspiro[4.5]decane] returned an IC50 of 10 nM.

As for `CC1=C(N2CCC3(CCN(C[C@@H](O)c4nnc(-n5cnnn5)cc4C)CC3)C2=O)COC1=O` [Example 122, 8-{(2R)-2-hydroxy-2-[4-methyl-6-(1H-tetrazol-1-yl)pyridazin-3-yl]ethyl}-2-(4-methyl-5-oxo-2,5-dihydrofuran-3-yl)-1-oxo-2-aza-8-azoniaspiro[4.5]decane], inhibition was half-maximal at 10 nM (IC50).

The molecule `C[C@@H]1CC2(CCN(C[C@@H](O)c3cnc(-n4cnnn4)cn3)CC2)C(=O)N1C1=CC(=O)OC1` [Example 80, (3R)-8-{(2R)-2-hydroxy-2-[5-(1H-tetrazol-1-yl)pyrazin-2-yl]ethyl}-3-methyl-1-oxo-2-(5-oxo-2,5-dihydrofuran-3-yl)-2-aza-8-azoniaspiro[4.5]decane] gave an IC50 of 130 nM.

Turning to `CC1=C(N2CC[C@]3(CCN(C[C@H](O)c4cnc(-n5cnnn5)cn4)CC3F)C2=O)COC1=O` (mixture of isomers) [Example 224, 6-fluoro-8-{(2S)-2-hydroxy-2-[5-(1H-tetrazol-1-yl)pyrazin-2-yl]ethyl}-2-(4-methyl-5-oxo-2,5-dihydrofuran-3-yl)-1-oxo-2-aza-8-azoniaspiro[4.5]decane], the IC50 stood at 110 nM. This IC50 and that of the molecule before are within 1.5-fold of each other.

The molecule `Cc1nc(-n2cnnn2)cnc1CCN1CCC2(CC1)CCN(C1=CC(=O)OC1)C2=O` [Example 269, 8-{2-[3-methyl-5-(1H-tetrazol-1-yl)pyrazin-2-yl]ethyl}-2-(5-oxo-2,5-dihydrofuran-3-yl)-2,8-diazaspiro[4.5]decan-1-one] displayed an IC50 of 20 nM.

Take `CC1=C(N2CCC3(CCN(CCc4ccc(-n5cnnn5)nn4)CC3)C2=O)COC1=O` [Example 232, 8-(2-(6-(1H-Tetrazol-1-yl)pyridazin-3-yl)ethyl)-2-(4-methyl-5-oxo-2,5-dihydrofuran-3-yl)-2,8-diazaspiro[4.5]decan-1-one]: the IC50 was determined as 10 nM.

`CC1=C(N2CCC3(CCN(C[C@H](O)c4cnc(-n5cnnn5)cn4)CC3)C2=O)COC1=O` [Example 24, 8-{(2S)-2-hydroxy-2-[5-(1H-tetrazol-1-yl)pyrazin-2-yl]ethyl}-2-(4-methyl-5-oxo-2,5-dihydrofuran-3-yl)-1-oxo-2-aza-8-azoniaspiro[4.5]decane] gave an IC50 of 20 nM.

`CC1=C(N2CCC3(CCN(C[C@H](O)c4ccc(-n5cnnn5)nc4)CC3F)C2=O)COC1=O` (single isomer, unassigned) [Example 194] came in with a half-maximal inhibitory concentration (IC50) of 10 nM. Compared with the last molecule, the IC50 is about 2-fold lower.

For `CC1=C(N2CCC3(CCN(C[C@H](O)c4ncc(-n5cnnn5)cn4)CC3)C2=O)COC1=O` [Example 40, 8-{(2S)-2-hydroxy-2-[5-(1H-tetrazol-1-yl)pyrimidin-2-yl]ethyl}-2-(4-methyl-5-oxo-2,5-dihydrofuran-3-yl)-1-oxo-2-aza-8-azoniaspiro[4.5]decane], the IC50 turned out to be 200 nM.

For `CC1CC2(CCN(C(C)(C)C(O)c3cnc(-n4cnnn4)cn3)CC2)C(=O)N1C1=CC(=O)OC1` (single isomer, unassigned) [Example 301, 8-(1-(5-(1H-tetrazol-1-yl)pyrazin-2-yl)-1-hydroxy-2-methylpropan-2-yl)-3-methyl-2-(5-oxo-2,5-dihydrofuran-3-yl)-2,8-diazaspiro[4.5]decan-1-one], the IC50 was 10 nM.

`CC1(O)CC2(CCN(C[C@H](O)c3ccc(-n4cnnn4)nc3)CC2)C(=O)N1C1=CC(=O)OC1` (stereo partly drawn) [Example 157, 3-hydroxy-8-{(2R)-2-hydroxy-2-[6-(1H-tetrazol-1-yl)pyridin-3-yl]ethyl}-3-methyl-1-oxo-2-(5-oxo-2,5-dihydrofuran-3-yl)-2-aza-8-azoniaspiro[4.5]decane] returned an IC50 of 70 nM. This IC50 lies about 7-fold higher than the previous one.

With `CC1=CN(C2=C(C)C(=O)OC2)C(=O)C12CCN(CCc1nnc(-n3cnnn3)cc1C)CC2` [Example 256, 4-methyl-2-(4-methyl-5-oxo-2,5-dihydrofuran-3-yl)-8-{2-[4-methyl-6-(1H-tetrazol-1-yl)pyridazin-3-yl]ethyl}-1-oxo-2-aza-8-azoniaspiro[4.5]dec-3-ene], the IC50 was determined as 30 nM.

For the molecule `CC1=C(N2CCC3(CCN(C[C@@H](O)c4ncc(-n5cnnn5)nc4C)CC3)C2=O)COC1=O` [Example 99, 8-{(2R)-2-hydroxy-2-[3-methyl-5-(1H-tetrazol-1-yl)pyrazin-2-yl]ethyl}-2-(4-methyl-5-oxo-2,5-dihydrofuran-3-yl)-1-oxo-2-aza-8-azoniaspiro[4.5]decane], the IC50 was determined as 50 nM.

`CC1=CC2(CCN(C[C@H](O)c3cnc(-n4cnnn4)cn3)CC2)C(=O)N1C1=CC(=O)OC1` [Example 187, 8-{(2S)-2-hydroxy-2-[5-(1H-tetrazol-1-yl)pyrazin-2-yl]ethyl}-3-methyl-2-(5-oxo-2,5-dihydrofuran-3-yl)-2,8-diazaspiro[4.5]dec-3-en-1-one]: the IC50 worked out at 100 nM. This IC50 is about 2-fold higher than that of the molecule before.

Take `CC1=C(N2CCC3(CCN(C[C@@H](O)c4ccc(-n5cnnn5)nn4)CC3F)C2=O)COC1=O` (single isomer, unassigned) [Example 184]: the midpoint of inhibition, the IC50, lay at 70 nM.

For the molecule `CC1OC(=O)C=C1N1C(=O)C2(CCN(C[C@H](O)c3ccc(-n4cnnn4)nc3)CC2)C[C@H]1C` (single isomer, unassigned) [Example 231], the IC50 was determined as 1530 nM.

Molecule `CC1=C(N2CCC3(CCN(CCc4ccc(-n5cnnn5)nc4)CC3)C2=O)COC1=O` [Example 233] displayed an IC50 of 10 nM.

`COc1cc(-n2cnnn2)ccc1[C@@H](O)CN1CCC2(CC1)CCN(C1=CC(=O)OC1)C2=O` [Example 15, 8-{(2R)-2-hydroxy-2-[2-methoxy-4-(1H-tetrazol-1-yl)phenyl]ethyl}-1-oxo-2-(5-oxo-2,5-dihydrofuran-3-yl)-2-aza-8-azoniaspiro[4.5]decane] had an IC50 of 10 nM. In other words, the double-digit nanomolar range.

For `CC1=C(N2CCC3(CCN(C[C@H](F)c4cnc(-n5cnnn5)cn4)CC3)C2=O)COC1=O` [Example 276, (S)-8-(2-(5-(1H-Tetrazol-1-yl)pyrazin-2-yl)-2-fluoroethyl)-2-(4-methyl-5-oxo-2,5-dihydrofuran-3-yl)-2,8-diazaspiro[4.5]decan-1-one], the IC50 was 50 nM.

As for `COC1CN(C2=C(C)C(=O)OC2)C(=O)C12CC1CCC(C2)N1C[C@H](O)c1ccc(-n2cnnn2)nc1` (single isomer, unassigned) [Example 159], the IC50 came out at 40 nM.

As to `O=C1C=C(N2C=CC3(CCN(C[C@H](O)c4ccc(-n5cnnn5)nc4)CC3)C2=O)CO1` [Example 151, 8-{(2R)-2-hydroxy-2-[6-(1H-tetrazol-1-yl)pyridin-3-yl]ethyl}-1-oxo-2-(5-oxo-2,5-dihydrofuran-3-yl)-2-aza-8-azoniaspiro[4.5]dec-3-ene], inhibition was half-maximal at 30 nM (IC50).

The molecule `CC1(C)CC2(CCN(C[C@H](O)c3ccc(-n4cnnn4)nn3)CC2)C(=O)N1C1=CC(=O)OC1` [Example 189, 8-{(2S)-2-hydroxy-2-[6-(1H-tetrazol-1-yl)pyridazin-3-yl]ethyl}-3,3-dimethyl-1-oxo-2-(5-oxo-2,5-dihydrofuran-3-yl)-2-aza-8-azoniaspiro[4.5]decane] returned an IC50 of 50 nM.

As to `CC1(O)CC2(CCN(C[C@H](O)c3ccc(-n4cnnn4)nn3)CC2)C(=O)N1C1=CC(=O)OC1` (stereo partly drawn) [Example 158, 3-hydroxy-8-{(2S)-2-hydroxy-2-[6-(1H-tetrazol-1-yl)pyridazin-3-yl]ethyl}-3-methyl-1-oxo-2-(5-oxo-2,5-dihydrofuran-3-yl)-2-aza-8-azoniaspiro[4.5]decane], half-maximal inhibition (IC50) was put at 560 nM.

Molecule `Cc1cc(-n2cnnn2)ccc1[C@H](O)CN1CCC2(CC1)CCN(C1=CC(=O)OC1)C2=O` [Example 12, 8-{(2S)-2-hydroxy-2-[2-methyl-4-(1H-tetrazol-1-yl)phenyl]ethyl}-1-oxo-2-(5-oxo-2,5-dihydrofuran-3-yl)-2-aza-8-azoniaspiro[4.5]decane] registered an IC50 of 10 nM. Compared with the last molecule, the IC50 is about 56-fold lower.

In turn, `CCC1CC2(CCN(C[C@H](O)c3cnc(-n4cnnn4)cn3)CC2)C(=O)N1C1=CC(=O)OC1` (mixture of isomers) [Example 220, 3-ethyl-8-{(2S)-2-hydroxy-2-[5-(1H-tetrazol-1-yl)pyrazin-2-yl]ethyl}-2-(5-oxo-2,5-dihydrofuran-3-yl)-2,8-diazaspiro[4.5]decan-1-one] registered an IC50 of 40 nM. This IC50 lies about 4-fold higher than the previous one.

For `CC1=C(N2CCC3(CCN(C[C@@H](O)c4nnc(-n5cnnn5)cc4C)CC3F)C2=O)COC1=O` (single isomer, unassigned) [Example 199], inhibition was half-maximal at 20 nM (IC50). This IC50 is about 2-fold lower than that of the molecule before.

`CC1=C(N2CCC3(CCN(C[C@H](O)c4nnc(-n5cnnn5)cc4C)CC3F)C2=O)COC1=O` (single isomer, unassigned) [Example 185] gave an IC50 of 50 nM.

Take `CC1=C(N2CCC3(CC4CCC(C3)N4C[C@@H](O)c3cc(C)c(-n4cnnn4)nn3)C2=O)COC1=O` (stereo partly drawn) [Example 54, (1R,5R)-8-{(2R)-2-hydroxy-2-[5-methyl-6-(1H-tetrazol-1-yl)pyridazin-3-yl]ethyl}-1′-(4-methyl-5-oxo-2,5-dihydrofuran-3-yl)-2′-oxospiro[8-azoniabicyclo[3.2.1]octane-3,3′-pyrrolidine]]: the IC50 was 20 nM. This IC50 is about 2.5-fold lower than that of the molecule before.

Values taken from patent publication US9765074B2, “Inhibitors of the renal outer medullary potassium channel” (Merck Sharp & Dohme Corp., priority 2013, dated 2017).
